Experiments:
Test in all cases: CTG-3D luminescence at 96 h relative to day-0 seeding control (ratio to day 0); higher = more growth / less cytotoxicity; PDxO 3D drug screen, 96 h, CTG-3D normalised to day-0 seeding control.
[1] = tested on: HCI-015 (organoid from a triple-negative breast cancer xenograft)
[2] = tested on: MDA-MB-231
[3] = tested on: HCI-016 (organoid from a triple-negative breast cancer xenograft)
[4] = tested on: HCI-012 (organoid from a breast cancer xenograft)
[5] = tested on: HCI-005.E2 (organoid from a breast cancer xenograft with a HER2-positive history)
[6] = tested on: HCI-017.E2 (organoid from an ER-positive breast cancer xenograft)

CC1(C)CCC(c2ccc(Cl)cc2)=C(CN2CCN(c3ccc(C(=O)NS(=O)(=O)c4ccc(N[C@H](CCN5CCOCC5)CSc5ccccc5)c(S(=O)(=O)C(F)(F)F)c4)cc3)CC2)C1 [navitoclax]
CTG-3D luminescence at 96 h
Details	12.5 pM	0.00025 µM	0.005 µM	0.1 µM	1 µM	10 µM	100 µM	625 fM
[1], days in culture: 172	2.17	2.01	2.2	1.82	1.99	1.61	0.429	2.6
[1], days in culture: 191	2.56	1.7	2	1.59	1.87	1.01	0.399	1.61
[1], days in culture: 218	1.72	1.53	1.74	1.59	1.64	1.63	-0.117	1.97
[3], days in culture: 153	3.08	1.54	2.11	1.77	1.76	0.105	0.000169	3.01
[3], days in culture: 172	2.29	2.07	1.85	1.43	1.55	0.931	0.00877	1.68
[3], days in culture: 190	2.07	1.62	1.9	1.65	1.46	1.1	0.0887	1.24
[3], days in culture: 199	2.03	2.16	2.22	1.82	2.1	0.827	0.0061	1.99
[4], days in culture: 143	1.69	2.26	2.2	2.7	2.07	2.21	0.239	1.81
[4], days in culture: 162	2.02	2.3	2.33	2.56	2.17	2.21	0.134	2.94
[4], days in culture: 201	3.09	2.12	1.75	1.93	2.2	0.271	-0.19	1.96
[6], days in culture: 85	2.05	1.26	2.18	1.93	1.57	1.98	0.14	1.51

CTG-3D luminescence at 96 h
Details	12.5 pM	0.00025 µM	0.005 µM	0.1 µM	1 µM	10 µM	100 µM	625 fM
[2]	4.52	4.44	4.56	4.28	3.8	1.42	0.000199	4.6
[5]	1.5	1.46	1.66	1.7	1.24	1.21	0.0085	1.6
[6]	1.6	2	1.8	1.81	1.78	1.7	0.043	1.812

Source: the supplement of paper PMC8882468
